Columns and labels:
L1210 = assay: Cytotoxicity against mouse L1210 cells; assay type: functional, cell-based
[1] = Stability assessed as half life at pH 3; assay type: physicochemical; details: buffer
[2] = Stability assessed as half life at pH 7; assay type: physicochemical; details: buffer
[3] = Stability assessed as half life at pH 2; assay type: physicochemical; details: buffer

Row | half-life [1] [h] | SMILES | IC50 (L1210) [nM] | also measured
1 | – | COC(=O)c1cc2c([nH]1)[C@@]13C[C@@H]1CN(C(=O)OC(C)(C)C)C3=CC2=O | 33 | –
2 | 206 | Cc1csc2c1[C@@]13C[C@@H]1CN(C(=O)OC(C)(C)C)C3=CC2=O | 30 | –
3 | 6.38 | CCS(=O)(=O)N1C[C@H]2C[C@@]23C1=CC(=O)c1ccccc13 | – | –
4 | 0.03 | CC(C)(C)OC(=O)N1CCC[C@H]2C[C@@]23C1=CC(=O)c1ccccc13 | 5000 | half-life [2]: 2.1 h
5 | 1.6 | CCC(=O)N1C[C@H]2C[C@@]23C1=CC(=O)c1ccccc13 | – | –
6 | – | CC(C)(C)OC(=O)N1C[C@H]2C[C@@]23C1=CC(=O)c1ccccc13 | – | Stability [2]: Stable
7 | – | COC(=O)c1cc2c([nH]1)C(=O)C=C1N(C(=O)OC(C)(C)C)C[C@H]3C[C@]123 | – | Stability [2]: Stable
8 | – | COC(=O)c1cc2c([nH]1)[C@@]13C[C@@H]1CN(C(=O)c1cc4cc(OC)c(OC)c(OC)c4[nH]1)C3=CC2=O | 0.05 | –
9 | 209 | Cc1cc2c(s1)[C@@]13C[C@@H]1CN(C(=O)OC(C)(C)C)C3=CC2=O | 25 | –
10 | 0.6 | CNC(=O)N1C[C@H]2C[C@@]23C1=CC(=O)c1ccccc13 | – | –
11 | – | COc1cc2cc(CN3C[C@H]4C[C@@]45C3=CC(=O)c3ccccc35)[nH]c2c(OC)c1OC | 1400 | t1/2 [1]: 1291.7 days
12 | – | O=C1C=C2N(c3ccccc3)C[C@H]3C[C@@]23c2ccccc21 | 1100 | half-life [3]: 171 h
13 | 1.3 | O=C1C=C2CC[C@H]3C[C@@]23c2ccccc21 | – | half-life [2]: 4 h
14 | – | COC(=O)c1ccc(N2C[C@H]3C[C@@]34C2=CC(=O)c2ccccc24)cc1 | 330 | half-life [3]: 138 h
15 | 3.93 | COC(=O)c1cccc2c1C(=O)C=C1N(C(=O)OC(C)(C)C)C[C@H]3C[C@]123 | 70 | –
16 | 0.417 | COC(=O)C1=NC2=C(OCc3ccccc3)C=C3N(C(=O)c4cc5cc(OC)c(OC)c(OC)c5[nH]4)C[C@H]4C[C@@]34C2=C1 | 5 | half-life [2]: 0.717 h
17 | – | CC(C)(C)OC(=O)N1CC[C@H]2C[C@@]23C1=CC(=O)c1ccccc13 | – | half-life [2]: 544 h
18 | – | COc1ccc(N2C[C@H]3C[C@@]34C2=CC(=O)c2ccccc24)cc1 | 3200 | half-life [3]: 198 h
19 | 1.83 | COc1ccc2c(c1)[C@@]13C[C@@H]1CN(C(=O)OC(C)(C)C)C3=CC2=O | – | –

Row | SMILES | half-life [1] [h] | IC50 (L1210) [nM] | also measured
20 | CC(C)(C)OC(=O)N1C[C@H]2C[C@@]23C1=CC(=O)c1ccc(C#N)cc13 | 3.55 | – | –
21 | COC(=O)c1cc2c([nH]1)C(=O)C=C1N(C(=O)c3cc4cc(OC)c(OC)c(OC)c4[nH]3)C[C@H]3C[C@]123 [DUOCARMYCIN] | 177 | – | Stability [2]: Stable
22 | O=C1C=C2NC[C@H]3C[C@@]23c2ccccc21 | 4200 | – | Stability [2]: Stable
23 | COc1cc2cc(C(=O)N3C[C@H]4C[C@@]45C3=CC(=O)c3ccccc35)[nH]c2c(OC)c1OC | 133 | 0.02 | –
24 | COC(=O)N1C[C@H]2C[C@@]23C1=CC(=O)c1ccccc13 | 0.95 | – | –

Source: ChEMBL document CHEMBL1153514, “Fundamental relationships between structure, reactivity, and biological activity for the duocarmycins and CC-1065” (J Med Chem, 2009)
